The results in this text go back to patent US4742172A, “Intermediates for synthesizing pharmaceutically active 3,7-diazabicyclo-(3,3,1)-nonane compounds” (Kali-Chemie Pharma GmbH, priority 1982, dated 1988).

The subject of data set [1] is left atrium cordis of guinea pigs. Nature of the data set: Functional refractory period and contractile force of the electrically stimulated left atrium cordis (paired stimulation, method of Govier). Also noted: species or system female albino Pirbright-white guinea pigs. Conditions: for EC (125%) / IC25: Cavia porcellus, administered as di-tartrate; for EC (125%): 0.3 h, 18 minutes after administration, read-out: FRP 125% (concentration prolonging functional refractory period to 125%); for IC25: left atrium, read-out: F 75% (concentration reducing contractile force to 75% of initial value); for quotient F 75%/FRP 125%: therapeutic index of the anti-arrhythmic action on the isolated organ. The source says:
148, No. 1, pages 100-105 (1965). All anti-arrhythmic drugs which at present are used in therapy and which differ in their chemical structure are distinguished by being able to prolong the functional refractory period. In addition thereto said method permits to detect the effects of compounds on the contractile force of the myocardium. […] Said quotient supplies information regarding the therapeutic index of the anti-arrhythmic action of a compound on the isolated organ. See P. Greef in Verhandlung der Deutschen Gesellschaft fuer Kreislaufforschung vol. 35, pages 88-97 (1969).

The subject of data set [2] is right atrium cordis of guinea pigs. Kind of data set: Heart rate of the spontaneously beating, isolated right atrium cordis. Also noted: species or system female albino Pirbright-white guinea pigs. The conditions noted are these: Cavia porcellus, 20 min; 20 minutes after administration; administered as di-tartrate; read-out: FRQ 75% (concentration decreasing heart rate to 75% of initial value). The protocol: The direct effect of the active compound on the heart rate (FPQ) was tested on the spontaneously beating, isolated right atrium cordis of female albino Pirbright-white guinea pigs (GP) of the weight class between 300 g. and 400 g. In Table 3 there is given, as FPQ 75%, the concentration in μmole/l. by which a decrease of the heart rate to 75% of the initial value is achieved 20 minutes after administration of the compound to be tested.

Another data set relates to anesthetized rats. Nature of the data set: Effect on heart rate, systolic blood pressure and double product (myocardial oxygen consumption, method of Neill). The class given is in vivo. The conditions noted are these: administered as ditartrate; for Change DP: vs initial value. The procedure: The influence of the active compounds according to the present invention on myocardial oxygen consumption has been investigated in animal models and determined according to the method of Neill as described by W. A. Neill, H. H. Levine, R. J. Wagman, and P. Gorlin in Circulation Research, Vol. 12, page 163 (1963). The blood circulation measurements which are required for these tests, namely, systolic blood pressure and heart rate, were determined according to the design of experimental procedure as described by G. Buschmann, W. Schumacher, R. Budden, and U. G. Kuehl in J. Cardiovasc. Pharmacol., Vol. 2, pages 777-795 (1980). As is evident from the following Table 1, the active compound reduces the product* of heart rate and systolic blood pressure. Thus, the tested compound reduces the consumption of oxygen to be supplied to the heart. This effect is observed in intravenous administration (i.v.) as well as on intraduodenal administration (i.d.) and is to be attributed to the action of the compound tested.
Effect upon heart rate (FRQ), systolic blood pressure (Ps)
and the double product (DP) determined on anesthetized rats

Data set [3] has as its system aconitine-induced ventricular extrasystoles in rats. Nature of the data set: Anti-arrhythmic activity, aconitine test in rats (method of Raschak). The class given is in vivo, male Wistar rats. The conditions noted are these: for Change in time to occurrence of ES: vs vehicle control. The protocol:
When administering aconitine to rats by continuous intravenous infusion, there are observed in the electrocardiogram considerable disturbances in the heartbeat, such as, for instance, ventricular extrasystoles. The tested animals were male Wistar rats of the weight class between 250 g. and 350 g. The influence of an active compound according to the present invention upon such rats after an aconitine infusion was determined according to the method of Raschak as described by M. Raschak in Arzneim. Forsch. vol. 25, No. 4, pages 639-641 (1975). […] The active compound was administered intravenously in the form of an isotonic sodium chloride solution, i.e. the vehicle, in a dose of 6.0 μmole/kg. The dose administered is one twenthieth of the lethal dose (LD50) as determined on mice. […] After intravenous administration of the active compound to be tested and of the control solution, the aconitine solution was administered by infusion in an amount which was constant per time unit. The period of time was measured within which ventricular extrasystoles (ES) were observed. Said period of time, in minutes, is given in Table 2 as well as the difference in the period of time observed on administering the test compound and the control solution.
One of the active compounds tested is the compound of Example 3, No. 302, i.e., N,N-di-n-butyl-9,9-dimethyl-3,7-diaza bicyclo-(3,3,1)-nonane as described hereinafter. There are also given the results obtained by testing an equitoxic amount of the drug known under the trademark "Lidocain", i.e., 2-(diethylamino)-N-(2,6-dimethyl phenyl)-acetamide.
Anti-arrhythmic activity determined by the […]

A short description of the next data set: in vivo. Conditions: mouse, po, peroral administration, mice.

With `CN1CC2CN(C)CC(C1)C2(C)C` [Comparative compound, N,N',9,9-tetramethyl diaza bicyclo-(3,3,1)-nonane, reference compound], in data set [1], the EC (125%) is 122 µM, the IC25 is approximately 215 µM and the “quotient F 75%/FRP 125%” value is reported as “about 2”. Besides, in data set [2], the IC25 was approximately 215 µM.

Usually LD50 stands for the dose expected to kill half of the subjects tested. A higher LD50 goes with a less toxic substance. With `CCCCN1CC2CN(CCCC)CC(C1)C2(C)C` [Example 3, No. 302, N,N'-di-n-butyl-9,9-dimethyl-3,7-diaza bicyclo-(3,3,1)-nonane], the “DP (double product of heart rate and systolic blood pressure)” value in the data set with anesthetized rats (13.5 μmole/kg i.v., initial value 39) is given as 25 mm.Hg/min. × 1000; in the data set on anesthetized rats (100 μmole/kg i.d., initial value 41), 30 mm.Hg/min. × 1000. The “Ps (systolic blood pressure)” value with anesthetized rats (13.5 μmole/kg i.v., initial value 104) is 147 mm.Hg; in the data set with anesthetized rats (100 μmole/kg i.d., initial value 101) it was 125 mm.Hg. In addition, the “FRQ (heart rate)” value was 174 min⁻¹ in the data set with anesthetized rats (13.5 μmole/kg i.v., initial value 372) and 238 min⁻¹ in the data set on anesthetized rats (100 μmole/kg i.d., initial value 406). Besides, the “Change DP” value in the data set with anesthetized rats (13.5 μmole/kg i.v.) is on record as -36%; in the data set with anesthetized rats (100 μmole/kg i.d.), -27%. Moreover, in data set [3] (6.0 μmole/kg i.v., vehicle control 6.7 min, administered as di-tartrate), the “Time to occurrence of ES (ventricular extrasystoles)” value is 8.2 min. The “Change in time to occurrence of ES” value in data set [3] (6.0 μmole/kg i.v., administered as di-tartrate) is reported as “+23%”. Further, the EC (125%) in data set [1] is 1 µM. Moreover, the IC25 in data set [1] was determined as 104 µM; in data set [2] it was 3 µM. Besides, in data set [1], the “quotient F 75%/FRP 125%” value was found to be 104. Further, in “in vivo”, the LD50 was found to be 1040 µmol/kg.

For `CCN(CC)CC(=O)Nc1c(C)cccc1C` [Lidocain, 2-(diethylamino)-N-(2,6-dimethylphenyl)-acetamide, reference compound], the “Time to occurrence of ES (ventricular extrasystoles)” value in data set [3] (10.0 μmole/kg i.v. (equitoxic amount), vehicle control 6.3 min) was determined as 6.6 min. For the same compound, the “Change in time to occurrence of ES” value in data set [3] (10.0 μmole/kg i.v. (equitoxic amount)) is reported as “+5%”.
